US9868722B2, “Monocyclic pyrimidine/pyridine compounds as inhibitors of P97 complex” (Cleave Biosciences, Inc., priority 2013, dated 2018)
Counter-ions that a name gives are not always drawn. Like-named read-outs stand apart in the source and are kept apart here.

Legend:
A549 cells = assay: Cultured cancer cell viability assay (cell titer glo, A549 CTG); assay type: cell-based; settings: Homo sapiens
Text: Anti-tumor effects are monitored in cultured cancer cells after several days of compound treatment. The cell titer glo assay (Promega) measures the amount of ATP present as a proxy for cellular viability. Cellular counting is done using high-content microscopy followed by image analysis. A hanging drop 3D-culture system (3D Biomatrix) is used followed by cell titer glo to measure growth in a tumor-like environment.
The cellular assay provides information about the anti-neoplastic activity of the compounds of the invention. The compounds are tested against cultured cancer cells to determine whether or not the compounds of the invention are capable of intersecting with cancer cells to minimize or eliminate such cells. The assay involves establishing colonies of such cells and then treating them with the test compound under specified conditions and analysis regime to determine results.
(§1) Plate 25 μL of A549 cells in every well of 384-well plate using multidrop.
One (1) white plate for viability at 500 cells/well.
Serial dilute compounds with a 10 point 2-fold serial dilution in DMSO to make 250× stock compound solution
Dilute compounds 1:125 in cell culture media to make a 2× solution Add 25 μl of dilution compounds to cell plates in well duplicates
Put cells back in incubator (6 hr incubation for black plates, 72 hr incubation for white plates).
Thaw an aliquot of frozen cell titer glo (Promega G7572) at room temperature.
Add 45 mL of NaCl/PBS solution to 5 ml of cell titer glo (10×).
Remove white plates from incubator, leave at room temp for 30 minutes.
Add 25 μl of diluted cell titer glo to each well.
Shake plate for >1 minute.
Incubate plate for >5 minutes to stabilize luminescence. • Luminescence is stable for up to 3 hours.
Read luminescence on plate reader
The results are reported on the following Table I for Examples A-EE and the E1-E4 compounds as 50 percent Inhibitory concentration at candidate doses of less than 1 μM, less than 3 μM and less than 10 μM for both of the K48 antibody and the p53 (CTG) antibody assays

[1] = tested on: K48 poly-Ubiquitin accumulation in A549 cells; assay: A549 K48 poly-ubiquitin accumulation immunofluorescence assay; assay type: cell-based; settings: Homo sapiens
Experimental: Image-analysis is used to generate quantitative data from these assays that can be fit to a four-parameter sigmoid curve to derive IC50 values. Substrates of the ubiquitin-proteasome system, such as p53, are monitored after tumor cell lines are incubated with compounds for several hours. Accumulation of these proteins indicates an inhibition of proteasome-mediated degradation. Accumulation of lysine-48 chain linkage of poly-ubiquitin is also monitored by immunofluorescence as an indicator of ubiquitin-proteasome system inhibition. Both LC3 and SQSTM1 are mediators of autophagy. The localization and amounts of these proteins are monitored by immunofluorescence and report on the activity and inhibition of autophagy in response to p97 inhibition.
as §1
Two (2) black plates for IF at 2500 cells/well
Serial dilute compounds with a 10 point 2-fold serial dilution in DMSO to make 250× stock compound solution Dilute compounds 1:125 in cell culture media to make a 2× solution Add 25 μl of dilution compounds to cell plates in well duplicates Put cells back in incubator (6 hr incubation for black plates, 72 hr incubation for white plates).
Incubate cells in black plates with compound at 37 degC for 6 hrs. add 15 μL of 16% Paraformaldehyde (PFA) directly into media of each well, incubate at room temp for 5 min, flick plate and wash in 50 μL of PBS block in 50 μL of Blocking Buffer for 30 minutes (can go up to several hours) Blocking buffer: 1×PBS, 1% BSA, 0.3% Triton-X100, Hoechst (1:10,000) incubate in 25 μL of primary antibody in blocking buffer at 4 degC over night […]
Secondary Antibodies: • AlexaFluor488 Goat anti-Rabbit 1:2,000 (Life Tech A11008) • AlexaFluor555 Goat anti-Mouse 1:2,000 (Life Tech A21422) incubate in 25 μl of secondary antibody (1:2,000) in blocking buffer for 1-2 hrs at room temp (alexafluor488-anti-Rabbit/alexafluor555-anti-Mouse) Image plates in high content microscope with 405 nm, 488 nm and 555 nm filters Nuclear counts and cellular intensities of each markers are measured using Hoechst as a nuclear marker with an automated image analysis protocol using Matlab software (Math Works) The results are reported on the following Table I for Examples A-EE and the E1-E4 compounds as 50 percent Inhibitory concentration at candidate doses of less than 1 μM, less than 3 μM and less than 10 μM for both of the K48 antibody and the p53 (CTG) antibody assays

p97 = p97 (Homo sapiens, UniProt P55072); assay: P97 ATPase biochemical assay (ADP Glo)
Experimental: The ATPase assay is performed according the following protocol: Purified enzyme (20 nM p97), substrate (20 μM ATP) and a dose titration of compounds are mixed in buffer (50 mM TRIS pH 7.5, 20 mM MgCl2, 0.02% TX-100, 1 mM DTT, 0.2% (v/v) glycerol) and incubated at 37° C. for 15 minutes. The reaction is terminated and the level of product generated is measured using the ADP Glo Assay Kit (Promega, Madison Wis.). Plotting product generated versus compound concentration and using a four-parameter fit model generates an IC50 value for each compounds.
The p97 assay is an initial screening assay used to determine inhibitory activity of the monocyclic pyrimidine compounds of the invention against the p97 complex. As discussed above, inhibition of activity of the p97 proteosome complex can enable apoptosis and cause elimination of neoplastic cells (cancer cells). The method follows that of Christianson in Nat. Cell Biol., (2011) 14:93.
Assay Buffer is a mixture of 50 mM TRIS pH 7.5, 20 mM MgCl2, 0.02% TX-100, 1 mM DTT and 0.2% (v/v) Glycerol. The well plate is Platetype: Corning 3674, 384w plate. The identification kit is an ADP glo kit (Promega): stop buffer, detection reagent.
Serial dilute compound in DMSO in a 1:3.33-fold 10 point serial dilution.
0.5 μL compound serial diluted in DMSO (Final Conc. 10%)
2 μL ATP (Final Conc.=20 uM, diluted in assay buffer)
2.5 μL p97 (Final Conc.=20 nM, diluted in assay buffer)
Incubate at 37 degC for 15 min.
Add 5 μL of stop buffer, incubate at RT for 40 min.
Add 10 μL of detection reagent, incubate at RT for 30 min.
Read luminescence on Envision plate reader. • Upon obtaining the data from the luminescence reading, the data may be analyzed as follows:
Normalize luminescence data using no enzyme (full inhibition) and no compound (no inhibition) controls. Plot normalized luminescence data against log-transformed concentration values and fit to a sigmoidal curve to determine IC50 values (done in Collaborative Drug Discovery software).
The results are reported on the following Table for Examples A-EE and the E1-E4 compounds as 50 percent Inhibitory concentration at candidate doses of less than 30 nM, less than 100 nM, less than 300 nM and less than 1000 nM for the p97 inhibition assay.

[2] = A549, Table II, preliminary assays, read-out: Cell Titre Glow Assay IC50
[3] = A549 cells, 72 hr incubation, cell titer glo, read-out: A549 CTG IC50
[4] = A549, Table II, preliminary assays, read-out: K48 poly-Ubiquitin Accumulation
[5] = A549 cells, 6 hr incubation, K48-Ub antibody, read-out: A549 K48 IC50
[6] = 20 nM p97, 20 uM ATP, 37 degC 15 min

p97, sequence (P55072 whole entry): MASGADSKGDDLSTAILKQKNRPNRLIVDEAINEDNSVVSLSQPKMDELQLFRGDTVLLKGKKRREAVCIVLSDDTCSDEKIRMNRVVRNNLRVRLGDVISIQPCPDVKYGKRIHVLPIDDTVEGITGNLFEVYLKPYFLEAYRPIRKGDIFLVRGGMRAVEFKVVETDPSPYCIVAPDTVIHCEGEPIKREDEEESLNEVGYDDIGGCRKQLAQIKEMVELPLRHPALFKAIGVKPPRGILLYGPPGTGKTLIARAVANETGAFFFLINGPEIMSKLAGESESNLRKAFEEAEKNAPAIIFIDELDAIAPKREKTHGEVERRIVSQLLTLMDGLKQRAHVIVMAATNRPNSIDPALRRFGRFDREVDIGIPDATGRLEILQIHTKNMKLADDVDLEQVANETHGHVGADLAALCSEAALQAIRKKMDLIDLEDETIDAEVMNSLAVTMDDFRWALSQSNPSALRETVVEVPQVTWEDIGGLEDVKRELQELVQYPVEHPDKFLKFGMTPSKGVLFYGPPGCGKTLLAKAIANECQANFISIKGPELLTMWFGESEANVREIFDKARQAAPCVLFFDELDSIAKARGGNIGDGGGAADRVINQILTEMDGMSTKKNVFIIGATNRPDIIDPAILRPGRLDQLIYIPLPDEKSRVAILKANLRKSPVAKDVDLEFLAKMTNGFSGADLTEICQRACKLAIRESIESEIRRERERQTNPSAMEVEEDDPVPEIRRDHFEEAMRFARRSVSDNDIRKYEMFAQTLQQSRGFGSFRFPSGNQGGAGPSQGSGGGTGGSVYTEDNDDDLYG

With `Cc1cc(NCc2ccccc2)nc(-n2c(C)cc3c(C(N)=O)cccc32)n1` [Example 1, 1-[4-(benzylamino)-6-methylpyrimidin-2-yl]-2-methyl-1H-indole-4-carboxamide] the IC50 (A549 cells; [2]) was 2010 nM, the IC50 (A549 cells; [3]) was < 3000 nM and the IC50 [1, 4] was 3000 nM. For the same molecule, the IC50 [1, 5] was < 10000 nM, the IC50 (p97; [6]) was < 100 nM and the IC50 (p97; Table II, preliminary assays) was 42 nM.
`Cc1cnc(-n2c(C)cc3c(C(N)=O)cccc32)nc1NCc1ccccc1` [Example 2, 1-[4-(benzylamino)-5-methylpyrimidin-2-yl]-2-methyl-1H-indole-4-carboxamide] was tested, and the IC50 (A549 cells; [2]) was 970 nM, the IC50 (A549 cells; [3]) was < 1000 nM and the IC50 [1, 4] was 1600 nM. For the same molecule, the IC50 [1, 5] was < 3000 nM, the IC50 (p97; [6]) was < 30 nM and the IC50 (p97; Table II, preliminary assays) was 22 nM.
For `COc1cnc(-n2c(C)cc3c(C(N)=O)cccc32)nc1NCc1ccccc1` [Example 3, 1-[4-(benzylamino)-5-methoxypyrimidin-2-yl]-2-methyl-1H-indole-4-carboxamide], the IC50 (A549 cells; [2]) was 467 nM, the IC50 (A549 cells; [3]) was < 1000 nM and the IC50 [1, 4] was 890 nM. The IC50 [1, 5] was < 1000 nM, the IC50 (p97; [6]) was < 30 nM and the IC50 (p97; Table II, preliminary assays) was 7 nM.
`Cc1cc2c(C(N)=O)cccc2n1-c1ncc(C(F)(F)F)c(NCc2ccccc2)n1` [Example 4, 1-[4-(benzylamino)-5-(trifluoromethyl)pyrimidin-2-yl]-2-methyl-1H-indole-4-carboxamide] was tested, and the IC50 (A549 cells; [3]) was < 3000 nM, the IC50 [1, 5] was < 3000 nM and the IC50 (p97; [6]) was < 30 nM.
In the case of `Cc1cc2c(C(N)=O)cccc2n1-c1ncc(Cl)c(NCc2ccccc2)n1` [Example 5, 1-[4-(benzylamino)-5-chloropyrimidin-2-yl]-2-methyl-1H-indole-4-carboxamide], the IC50 (A549 cells; [2]) is reported as 1790 nM, the IC50 (A549 cells; [3]) is reported as < 3000 nM and the IC50 [1, 4] is reported as 1400 nM. The IC50 [1, 5] was < 3000 nM, the IC50 (p97; [6]) was < 30 nM and the IC50 (p97; Table II, preliminary assays) was 12 nM.
In the case of `CCc1cnc(-n2c(C)cc3c(C(N)=O)cccc32)nc1NCc1ccccc1` [Example 6, 1-[4-(benzylamino)-5-ethylpyrimidin-2-yl]-2-methyl-1H-indole-4-carboxamide], the IC50 (A549 cells; [3]) is reported as < 1000 nM, the IC50 [1, 5] is reported as < 1000 nM and the IC50 (p97; [6]) is reported as < 30 nM.
For `COc1c(C)nc(-n2c(C)cc3c(C(N)=O)cccc32)nc1NCc1ccccc1` [Example 7, 1-[4-(benzylamino)-5-methoxy-6-methylpyrimidin-2-yl]-2-methyl-1H-indole-4-carboxamide], the IC50 (A549 cells; [3]) was < 3000 nM, the IC50 [1, 5] was < 3000 nM and the IC50 (p97; [6]) was < 30 nM.
In the case of `Cc1nc(-n2c(C)cc3c(C(N)=O)cccc32)nc(NCc2ccccc2)c1C(C)C` [Example 8, 1-[4-(benzylamino)-6-methyl-5-(propan-2-yl)pyrimidin-2-yl]-2-methyl-1H-indole-4-carboxamide], the IC50 (A549 cells; [3]) is reported as < 3000 nM, the IC50 [1, 5] is reported as < 1000 nM and the IC50 (p97; [6]) is reported as < 30 nM.
In the case of `Cc1c(NCc2ccccc2)nc(-n2c(C)cc3c(C(N)=O)cccc32)nc1C(F)(F)F` [Example 9, 1-[4-(benzylamino)-5-methyl-6-(trifluoromethyl)pyrimidin-2-yl]-2-methyl-1H-indole-4-carboxamide], the IC50 (A549 cells; [3]) is reported as < 3000 nM, the IC50 [1, 5] is reported as < 3000 nM and the IC50 (p97; [6]) is reported as < 30 nM.
`Cc1cc2c(C(N)=O)cccc2n1-c1ncc(C(N)=O)c(NCc2ccccc2)n1` [Example 10, 1-[4-(benzylamino)-5-carbamoylpyrimidin-2-yl]-2-methyl-1H-indole-4-carboxamide] was tested, and the IC50 (A549 cells; [3]) was < 10000 nM, the IC50 [1, 5] was < 10000 nM and the IC50 (p97; [6]) was < 100 nM.
`Cc1cc2c(C(N)=O)cccc2n1-c1ncc(N)c(NCc2ccccc2)n1` [Example 17, 1-[5-amino-4-(benzylamino)pyrimidin-2-yl]-2-methyl-1H-indole-4-carboxamide] was tested, and the IC50 (p97; [6]) was < 1000 nM.
For `Cc1cc2c(C(N)=O)cccc2n1-c1ncc(CN(C)C)c(NCc2ccccc2)n1` [Example 21, 1-[4-(benzylamino)-5-[(dimethylamino)methyl]pyrimidin-2-yl]-2-methyl-1H-indole-4-carboxamide], the IC50 (p97; [6]) was < 1000 nM.
`Cc1cc2c(C(N)=O)cccc2n1-c1ncc(CN)c(NCc2ccccc2)n1` [Example 22, 1-[5-(aminomethyl)-4-(benzylamino)pyrimidin-2-yl]-2-methyl-1H-indole-4-carboxamide] was tested, and the IC50 (p97; [6]) was < 300 nM.
In the case of `CNCc1cnc(-n2c(C)cc3c(C(N)=O)cccc32)nc1NCc1ccccc1` [Example 23, 1-[4-(benzylamino)-5-[(methylaminoc)methyl]pyrimidin-2-yl]-2-methyl-1H-indole-4-carboxamide], the IC50 (p97; [6]) is reported as < 1000 nM.
For `Cc1cc2c(C(N)=O)cccc2n1-c1ncc(OCCN)c(NCc2ccccc2)n1` [Example 25, 1-[5-(2-aminoethoxy)-4-(benzylamino)pyrimidin-2-yl]-2-methyl-1H-indole-4-carboxamide], the IC50 (p97; [6]) was < 1000 nM.
With `Cc1cnc(-n2c(CN)cc3c(C(N)=O)cccc32)nc1NCc1ccccc1` [Example 31, 2-(aminomethyl)-1-[4-(benzylamino)-5-methylpyrimidin-2-yl]-1H-indole-4-carboxamide Hydrochloride] the IC50 (p97; [6]) was < 1000 nM.
For `CCc1cnc(-n2c(CN)cc3c(C(N)=O)cccc32)nc1NCc1ccccc1` [Example 32, 2-(aminomethyl)-1-[4-(benzylamino)-5-ethylpyrimidin-2-yl]-1H-indole-4-carboxamide], the IC50 (p97; [6]) was < 300 nM.
`Cc1cc2c(CN)cccc2n1-c1ncc(C(C)C)c(NCc2ccccc2)n1` [Example 39, 2-[4-(aminomethyl)-2-methyl-1H-indol-1-yl]-N-benzyl-5-(propan-2-yl)pyrimidin-4-amine] was tested, and the IC50 (p97; [6]) was < 1000 nM.
